These results are taken from ChEMBL document CHEMBL4339253, “Anthraquinone-Based Specialized Metabolites from Rhizomes of Bulbine natalensis” (J Nat Prod, 2019).

Activity calls are given as the source filed them. The calls are words filed in the database; no cut-off is given here. Bounds are passed on as bounds.

Common to all, as to assay type: functional, organism-based
Assay [1] relates to Cryptococcus neoformans. Nature of the assay: Antimicrobial activity against Cryptococcus neoformans ATCC 90113 assessed as inhibition of microbial growth up to 20 ug/mL by CLSI based method.
In assay [2] the test system is Aspergillus fumigatus. Put plainly: Antimicrobial activity against Aspergillus fumigatus ATCC 90906 assessed as inhibition of microbial growth up to 20 ug/mL by CLSI based method.
The test system of assay [3] is Pseudomonas aeruginosa. Nature of the assay: Antimicrobial activity against Pseudomonas aeruginosa ATCC 27853 assessed as inhibition of microbial growth up to 20 ug/mL by CLSI based method.
Assay [4] relates to Staphylococcus aureus. Put plainly: Antimicrobial activity against methicillin-resistant Staphylococcus aureus ATCC 43300 assessed as inhibition of microbial growth up to 20 ug/mL by CLSI based method.
In assay [5] the test system is Mycobacterium intracellulare. Put plainly: Antimicrobial activity against Mycobacterium intracellulare assessed as inhibition of microbial growth up to 20 ug/mL.
In assay [6] the test system is Escherichia coli. Nature of the assay: Antimicrobial activity against Escherichia coli ATCC 35218 assessed as inhibition of microbial growth up to 20 ug/mL by CLSI based method.
Assay [7] relates to Candida albicans. Nature of the assay: Antimicrobial activity against Candida albicans ATCC 90028 assessed as inhibition of microbial growth up to 20 ug/mL by CLSI based method.
Assay [8] concerns Staphylococcus aureus. Put plainly: Antimicrobial activity against methicillin-resistant Staphylococcus aureus ATCC 43300 assessed as inhibition of microbial growth by CLSI based method.
The subject of assay [9] is Aspergillus fumigatus. Put plainly: Antimicrobial activity against Aspergillus fumigatus ATCC 90906 assessed as inhibition of microbial growth by CLSI based method.
Assay [10] concerns Candida albicans. Nature of the assay: Antimicrobial activity against Candida albicans ATCC 90028 assessed as inhibition of microbial growth by CLSI based method.
Assay [11] concerns Cryptococcus neoformans. Put plainly: Antimicrobial activity against Cryptococcus neoformans ATCC 90113 assessed as inhibition of microbial growth by CLSI based method.
Assay [12] has as its system Pseudomonas aeruginosa. Put plainly: Antimicrobial activity against Pseudomonas aeruginosa ATCC 27853 assessed as inhibition of microbial growth by CLSI based method.
For assay [13], the system named is Escherichia coli. Put plainly: Antimicrobial activity against Escherichia coli ATCC 35218 assessed as inhibition of microbial growth by CLSI based method.

For `CC1=CC(O)=C2C(=O)c3c(O)cccc3C(c3ccc4c(c3O)C(=O)c3c(O)cc(C)cc3C4=O)=C2C1=O`, the “growth inhibition (GI)” value (in the assay with Cryptococcus neoformans [1]; in the assay on Aspergillus fumigatus [2]; with Pseudomonas aeruginosa [3]; with Staphylococcus aureus [4]; in [5]; in the assay with Escherichia coli [6]) was “inactive” in each case. For the same compound, the “growth inhibition (GI)” value with Candida albicans [7] was “inactive”.

Turning to `CC1=CC(O)=C2C(=O)c3c(O[C@@H]4O[C@H](CO)[C@@H](O)[C@H](O)[C@H]4O)cccc3C(c3ccc4c(c3O)C(=O)c3c(O)cc(C)cc3C4(O)[C@@H]3O[C@@H](C)[C@H](O)[C@@H](O)[C@H]3O)=C2C1=O` (some centres undefined), the “growth inhibition (GI)” value (in the assay with Cryptococcus neoformans [1]; with Aspergillus fumigatus [2]; with Pseudomonas aeruginosa [3]; in the assay on Staphylococcus aureus [4]; in assay [5]; in the assay on Escherichia coli [6]) was “inactive” each time. For the same compound, the “growth inhibition (GI)” value with Candida albicans [7] is “inactive”.

Usually IC50 stands for the concentration needed to halve the response being measured. On to `Cc1cc(O)c2c(c1)C(O)([C@@H]1O[C@@H](C)[C@H](O)[C@@H](O)[C@H]1O)c1ccc([C@H]3c4cccc(O)c4C(=O)c4c(O)cc(C)c(O)c43)c(O)c1C2=O` (some centres undefined), for which the IC50 in the assay with Staphylococcus aureus [8] was 20 µM; with Aspergillus fumigatus [9], above 30 µM; with Candida albicans [10], above 30 µM; with Cryptococcus neoformans [11], above 30 µM.

For the compound `COc1cc(O)c2c(c1)C(=O)c1cc(O[C@@H]3O[C@H](CO)[C@@H](O)[C@H](O)[C@H]3O)c(C(=O)O)c(C)c1C2=O`, the “growth inhibition (GI)” value (in the assay with Cryptococcus neoformans [1]; in the assay with Aspergillus fumigatus [2]; with Pseudomonas aeruginosa [3]; in the assay on Staphylococcus aureus [4]; in assay [5]; with Escherichia coli [6]) was “inactive” throughout. Moreover, the “growth inhibition (GI)” value in the assay on Candida albicans [7] was “inactive”.

Take `COc1cc(OC)c(C2=C(C)C=C(O)C3C(=O)c4c(O[C@@H]5O[C@H](CO[C@@H]6O[C@H](CO)[C@@H](O)[C@H](O)[C@H]6O)[C@@H](O)[C@H](O)[C@H]5O)cccc4C(=O)C23)c(O)c1C(C)=O` (some centres undefined): the “growth inhibition (GI)” value (in the assay on Cryptococcus neoformans [1]; in the assay with Aspergillus fumigatus [2]; with Pseudomonas aeruginosa [3]; with Staphylococcus aureus [4]; in [5]; in the assay with Escherichia coli [6]) was “inactive” throughout. For the same compound, the “growth inhibition (GI)” value with Candida albicans [7] is “inactive”.

As to `C[C@@H]1[C@H](O)[C@@H](C)/C=C/C=C/C=C/C=C/C=C/C=C/C=C/[C@H](O[C@@H]2O[C@H](C)[C@@H](O)[C@H](N)[C@@H]2O)C[C@@H]2O[C@](O)(C[C@@H](O)C[C@@H](O)[C@H](O)CC[C@@H](O)C[C@@H](O)CC(=O)O[C@H]1C)C[C@H](O)[C@H]2C(=O)O` [AMPHOTERICIN B], the IC50 in the assay on Staphylococcus aureus [8] is above 100 µM; in the assay with Aspergillus fumigatus [9], 1 µM; with Candida albicans [10], below 0.1 µM; in the assay on Cryptococcus neoformans [11], 0.2 µM.

Take `COc1cc(OC)c(C2=C3C(=O)C(C)=CC(O)=C3C(=O)c3c(O)cccc32)c(O)c1C(C)=O`: the “growth inhibition (GI)” value (in the assay with Cryptococcus neoformans [1]; with Aspergillus fumigatus [2]; in the assay with Pseudomonas aeruginosa [3]; with Staphylococcus aureus [4]; in [5]; in the assay with Escherichia coli [6]) was “inactive” throughout. The “growth inhibition (GI)” value in the assay on Candida albicans [7] was “inactive”.

Regarding `CN[C@H](CC(C)C)C(=O)N[C@H]1C(=O)N[C@@H](CC(N)=O)C(=O)N[C@H]2C(=O)N[C@H]3C(=O)N[C@H](C(=O)N[C@H](C(=O)O)c4cc(O)cc(O)c4-c4cc3ccc4O)[C@H](O)c3ccc(c(Cl)c3)Oc3cc2cc(c3O[C@@H]2O[C@H](CO)[C@@H](O)[C@H](O)[C@H]2O[C@H]2C[C@](C)(N)[C@H](O)[C@H](C)O2)Oc2ccc(cc2Cl)[C@H]1O` [VANCOMYCIN], the IC50 with Staphylococcus aureus [8] was 0.4 µM; with Pseudomonas aeruginosa [12], above 0.07 µM; with Escherichia coli [13], 0.04 µM; in the assay on Aspergillus fumigatus [9] it was above 70 µM; with Candida albicans [10], above 70 µM; in the assay on Cryptococcus neoformans [11], above 70 µM.

For `COc1cccc(OC)c1C(=O)N[C@@H]1C(=O)N2[C@@H]1SC(C)(C)[C@@H]2C(=O)O` [METHICILLIN], the IC50 in the assay with Staphylococcus aureus [8] is 30 µM; with Pseudomonas aeruginosa [12], 0.3 µM; in the assay with Aspergillus fumigatus [9], above 300 µM; with Candida albicans [10], above 300 µM; with Cryptococcus neoformans [11] it was above 300 µM.

As to `COc1cc(OC)c(C2=C(C)C=C(O)C3C(=O)c4c(O)cccc4C(=O)C23)c(O)c1C(C)=O` (centres undefined), the “growth inhibition (GI)” value (in the assay on Cryptococcus neoformans [1]; in the assay with Aspergillus fumigatus [2]; with Pseudomonas aeruginosa [3]; with Staphylococcus aureus [4]; in assay [5]; with Escherichia coli [6]) was “inactive” throughout. Besides, the “growth inhibition (GI)” value in the assay on Candida albicans [7] was “inactive”.

As for `COc1cccc2cc3c(c(O)c12)[C@@H](C)OC3`, the “growth inhibition (GI)” value (with Cryptococcus neoformans [1]; in the assay on Aspergillus fumigatus [2]; in the assay with Pseudomonas aeruginosa [3]; in the assay on Staphylococcus aureus [4]; in assay [5]; in the assay on Escherichia coli [6]) was “inactive” throughout. Also, in the assay with Candida albicans [7], the “growth inhibition (GI)” value is “inactive”.

Consider `CO/N=C(\C(=O)N[C@@H]1C(=O)N2C(C(=O)O)=C(COC(C)=O)CS[C@H]12)c1csc(N)n1` [CEFOTAXIME], for which the IC50 with Staphylococcus aureus [8] was 30 µM; in the assay with Pseudomonas aeruginosa [12] it was 0.03 µM; with Escherichia coli [13], 0.1 µM; in the assay with Aspergillus fumigatus [9], above 200 µM; in the assay with Candida albicans [10], above 200 µM; in the assay with Cryptococcus neoformans [11], above 200 µM.

As for `C[C@@H](O)[C@H]1C(=O)N2C(C(=O)O)=C(S[C@@H]3CN[C@H](C(=O)N(C)C)C3)[C@H](C)[C@H]12` [MEROPENEM], the IC50 with Staphylococcus aureus [8] was 10 µM; in the assay with Pseudomonas aeruginosa [12], 0.02 µM; in the assay on Escherichia coli [13] it was 0.01 µM; in the assay on Aspergillus fumigatus [9] it was above 300 µM; with Candida albicans [10] it was above 300 µM; in the assay with Cryptococcus neoformans [11], above 300 µM.

For `OC(Cn1cncn1)(Cn1cncn1)c1ccc(F)cc1F` [FLUCONAZOLE], the IC50 was above 300 µM in the assay with Staphylococcus aureus [8]; above 0.3 µM in the assay with Pseudomonas aeruginosa [12]; above 0.3 µM with Escherichia coli [13]; above 300 µM in the assay with Aspergillus fumigatus [9]; 5 µM in the assay on Cryptococcus neoformans [11].

For `Cc1cc(O)c2c(c1)C(O)([C@@H]1O[C@@H](C)[C@H](O)[C@@H](O)[C@H]1O)c1ccc([C@H]3c4cccc(O)c4C(=O)c4c(O)cc(C)c(O[C@@H]5OC[C@@H](O)[C@H](O)[C@H]5O)c43)c(O)c1C2=O` (some centres undefined), the “growth inhibition (GI)” value (in the assay with Cryptococcus neoformans [1]; with Aspergillus fumigatus [2]; with Pseudomonas aeruginosa [3]; in the assay on Staphylococcus aureus [4]; in [5]; with Escherichia coli [6]) was “inactive” throughout. In addition, in the assay with Candida albicans [7], the “growth inhibition (GI)” value was “inactive”.

`COc1cc(O)c(C(C)=O)c(O)c1C1=C(C)C=C(O)C2C(=O)c3c(O)cccc3C(=O)C12` (centres undefined): the “growth inhibition (GI)” value (in the assay on Cryptococcus neoformans [1]; with Aspergillus fumigatus [2]; in the assay on Pseudomonas aeruginosa [3]; with Staphylococcus aureus [4]; in assay [5]; in the assay with Escherichia coli [6]) was “inactive” each time. In the assay on Candida albicans [7], the “growth inhibition (GI)” value was “inactive”.
